Key:
[1] = target: T1, Interstitial collagenase (Homo sapiens, UniProt P03956); experiment: In vitro inhibition of Matrix metalloprotease-1.
T1 sequence (P03956 whole entry): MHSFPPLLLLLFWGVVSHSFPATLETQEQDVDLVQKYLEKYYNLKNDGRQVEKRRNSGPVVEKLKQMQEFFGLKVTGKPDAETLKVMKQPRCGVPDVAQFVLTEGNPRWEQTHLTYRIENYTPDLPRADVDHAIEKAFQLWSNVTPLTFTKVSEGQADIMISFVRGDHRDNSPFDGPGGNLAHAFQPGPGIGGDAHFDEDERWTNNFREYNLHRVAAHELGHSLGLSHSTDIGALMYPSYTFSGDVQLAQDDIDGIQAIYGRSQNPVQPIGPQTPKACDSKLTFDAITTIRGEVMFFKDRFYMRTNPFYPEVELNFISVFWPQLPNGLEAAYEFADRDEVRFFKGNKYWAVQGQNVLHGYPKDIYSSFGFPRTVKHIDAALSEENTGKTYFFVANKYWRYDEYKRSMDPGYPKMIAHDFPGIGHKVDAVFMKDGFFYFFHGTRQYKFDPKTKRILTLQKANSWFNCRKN

[2] = target: Matrix metalloproteinase-9 (Homo sapiens, UniProt P14780); experiment: In vitro inhibition of Matrix metalloprotease-9
Sequence of Matrix metalloproteinase-9 (P14780 whole entry, the tested form may be a part): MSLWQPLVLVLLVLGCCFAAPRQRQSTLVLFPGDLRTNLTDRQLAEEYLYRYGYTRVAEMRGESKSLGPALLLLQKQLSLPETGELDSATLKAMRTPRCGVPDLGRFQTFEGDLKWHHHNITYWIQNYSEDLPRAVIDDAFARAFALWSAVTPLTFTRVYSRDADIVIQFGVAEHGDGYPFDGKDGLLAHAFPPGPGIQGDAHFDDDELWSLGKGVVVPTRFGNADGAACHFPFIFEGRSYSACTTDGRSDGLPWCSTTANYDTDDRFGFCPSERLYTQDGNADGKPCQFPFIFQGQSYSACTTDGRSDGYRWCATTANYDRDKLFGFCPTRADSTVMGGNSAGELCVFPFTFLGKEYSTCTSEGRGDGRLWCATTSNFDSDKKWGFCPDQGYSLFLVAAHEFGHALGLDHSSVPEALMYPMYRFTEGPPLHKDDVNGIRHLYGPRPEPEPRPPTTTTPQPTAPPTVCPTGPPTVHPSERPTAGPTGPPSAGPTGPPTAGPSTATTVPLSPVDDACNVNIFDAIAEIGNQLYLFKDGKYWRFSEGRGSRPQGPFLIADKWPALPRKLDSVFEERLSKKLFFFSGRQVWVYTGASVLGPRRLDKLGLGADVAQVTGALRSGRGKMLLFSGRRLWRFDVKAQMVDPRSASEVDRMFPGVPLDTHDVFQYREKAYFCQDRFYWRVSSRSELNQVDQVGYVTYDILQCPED

[3] = target: Disintegrin and metalloproteinase domain-containing protein 17 (Sus scrofa, UniProt O77636); experiment: In vitro inhibition of TNF-alpha converting enzyme.
Sequence of Disintegrin and metalloproteinase domain-containing protein 17 (Sus scrofa, UniProt O77636) (O77636 whole entry, the tested form may be a part): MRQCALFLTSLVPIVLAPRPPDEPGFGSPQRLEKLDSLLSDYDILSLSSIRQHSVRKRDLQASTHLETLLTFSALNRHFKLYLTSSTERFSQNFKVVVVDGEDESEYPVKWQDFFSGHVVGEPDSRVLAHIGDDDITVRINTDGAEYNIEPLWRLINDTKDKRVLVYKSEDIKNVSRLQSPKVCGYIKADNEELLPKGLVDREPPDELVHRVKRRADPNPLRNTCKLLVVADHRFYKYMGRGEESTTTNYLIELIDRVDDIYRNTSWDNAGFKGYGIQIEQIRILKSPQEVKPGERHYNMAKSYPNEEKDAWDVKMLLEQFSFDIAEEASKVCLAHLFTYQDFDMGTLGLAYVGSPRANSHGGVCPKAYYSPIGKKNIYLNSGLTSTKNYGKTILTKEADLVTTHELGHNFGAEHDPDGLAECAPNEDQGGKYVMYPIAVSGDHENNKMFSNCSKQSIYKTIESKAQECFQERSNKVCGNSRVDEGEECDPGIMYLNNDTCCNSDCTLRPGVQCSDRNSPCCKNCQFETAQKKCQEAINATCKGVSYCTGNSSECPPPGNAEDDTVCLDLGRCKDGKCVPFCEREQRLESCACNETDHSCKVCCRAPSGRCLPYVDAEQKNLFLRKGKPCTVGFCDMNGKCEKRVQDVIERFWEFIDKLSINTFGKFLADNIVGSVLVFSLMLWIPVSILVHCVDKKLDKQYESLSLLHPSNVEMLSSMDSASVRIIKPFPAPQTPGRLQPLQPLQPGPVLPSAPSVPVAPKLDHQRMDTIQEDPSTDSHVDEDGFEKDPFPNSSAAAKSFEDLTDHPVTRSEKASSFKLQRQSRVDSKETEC

[4] = target: 72 kDa type IV collagenase (Homo sapiens, UniProt P08253)
Sequence of 72 kDa type IV collagenase (P08253 whole entry, the tested form may be a part): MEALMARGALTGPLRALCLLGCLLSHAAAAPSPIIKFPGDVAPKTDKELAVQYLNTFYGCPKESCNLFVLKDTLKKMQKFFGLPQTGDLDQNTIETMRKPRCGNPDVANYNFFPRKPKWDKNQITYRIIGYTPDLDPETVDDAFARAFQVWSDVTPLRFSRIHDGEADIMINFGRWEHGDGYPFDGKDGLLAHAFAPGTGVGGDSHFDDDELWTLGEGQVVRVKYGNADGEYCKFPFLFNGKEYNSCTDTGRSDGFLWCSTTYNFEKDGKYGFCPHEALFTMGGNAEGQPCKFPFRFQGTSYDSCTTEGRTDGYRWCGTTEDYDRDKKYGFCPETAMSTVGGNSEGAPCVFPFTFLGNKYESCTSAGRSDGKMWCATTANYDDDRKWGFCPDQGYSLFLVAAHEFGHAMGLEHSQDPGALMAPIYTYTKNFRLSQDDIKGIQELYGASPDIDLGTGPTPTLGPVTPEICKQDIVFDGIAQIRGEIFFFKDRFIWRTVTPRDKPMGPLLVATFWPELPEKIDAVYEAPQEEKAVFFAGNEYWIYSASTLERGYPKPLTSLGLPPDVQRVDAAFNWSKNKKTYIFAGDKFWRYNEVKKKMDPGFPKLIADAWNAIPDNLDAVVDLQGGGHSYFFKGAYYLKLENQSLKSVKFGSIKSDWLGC
Description: In vitro inhibition of Matrix metalloprotease-2

[5] = target: Disintegrin and metalloproteinase domain-containing protein 17 (Homo sapiens, UniProt P78536); experiment: Inhibition of TNF-alpha production from LPS stimulated human whole blood.; type: functional, tissue-based
Sequence of Disintegrin and metalloproteinase domain-containing protein 17 (Homo sapiens, UniProt P78536) (P78536 whole entry, the tested form may be a part): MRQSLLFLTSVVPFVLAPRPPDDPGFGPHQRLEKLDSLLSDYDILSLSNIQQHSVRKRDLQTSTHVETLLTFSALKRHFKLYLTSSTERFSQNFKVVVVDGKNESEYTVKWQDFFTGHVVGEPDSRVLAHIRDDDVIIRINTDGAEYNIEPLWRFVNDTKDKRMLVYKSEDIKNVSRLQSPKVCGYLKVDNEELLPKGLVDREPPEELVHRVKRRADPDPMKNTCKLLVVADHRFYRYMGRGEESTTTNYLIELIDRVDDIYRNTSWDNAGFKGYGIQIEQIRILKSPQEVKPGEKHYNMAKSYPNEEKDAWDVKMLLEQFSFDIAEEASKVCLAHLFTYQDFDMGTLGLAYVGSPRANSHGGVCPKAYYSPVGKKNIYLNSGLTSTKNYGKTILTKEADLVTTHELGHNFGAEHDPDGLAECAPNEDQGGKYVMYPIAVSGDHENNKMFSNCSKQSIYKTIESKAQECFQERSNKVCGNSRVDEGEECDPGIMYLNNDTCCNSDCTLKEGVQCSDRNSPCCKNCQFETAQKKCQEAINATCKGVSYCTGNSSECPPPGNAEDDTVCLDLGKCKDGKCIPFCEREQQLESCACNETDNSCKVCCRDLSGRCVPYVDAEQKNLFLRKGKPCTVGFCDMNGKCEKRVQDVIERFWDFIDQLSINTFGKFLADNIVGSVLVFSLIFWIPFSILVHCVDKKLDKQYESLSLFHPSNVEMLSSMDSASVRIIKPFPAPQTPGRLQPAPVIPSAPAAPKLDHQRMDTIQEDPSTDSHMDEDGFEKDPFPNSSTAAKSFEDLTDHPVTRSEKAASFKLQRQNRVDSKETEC

COC(=O)N[C@H](C(=O)NO)[C@H]1CCN(c2ccc(OCc3cc(C)nc4ccccc34)cc2)C1=O
Ki [1]: > 5 µM
Ki [2]: > 2 µM
IC50 [3]: < 0.001 µM
Ki [4]: 0.482 µM
IC50 [5]: 2.65 µM

Cc1cc(COc2ccc(N3CC[C@](N)([C@H](C)C(=O)NO)C3=O)cc2)c2ccccc2n1
Ki [1]: > 5 µM
Ki [2]: > 2 µM
IC50 [3]: 0.002 µM
Ki [4]: > 3 µM
IC50 [5]: 1.1 µM

Cc1cc(COc2ccc(N3CC[C@H]([C@H](N)C(=O)NO)C3=O)cc2)c2ccccc2n1
Ki [1]: > 5 µM
Ki [2]: 1.96 µM
IC50 [3]: 0.002 µM
Ki [4]: 0.446 µM
IC50 [5]: 1.7 µM

Cc1cc(COc2ccc(N3CC[C@H]([C@@H](C)C(=O)NO)C3=O)cc2)c2ccccc2n1
Ki [1]: > 5 µM
Ki [2]: > 2 µM
IC50 [3]: 0.052 µM
Ki [4]: > 3 µM
IC50 [5]: > 3 µM

Cc1cc(COc2ccc(N3CC[C@H]([C@H](O)C(=O)NO)C3=O)cc2)c2ccccc2n1
Ki [1]: > 5 µM
Ki [2]: > 2 µM
IC50 [3]: 0.003 µM
Ki [4]: > 3 µM
IC50 [5]: 2.4 µM

Cc1cc(COc2ccc(N3CC[C@H]([C@H](NC(=O)C(C)(C)C)C(=O)NO)C3=O)cc2)c2ccccc2n1
Ki [1]: > 5 µM
Ki [2]: > 2 µM
IC50 [3]: < 0.001 µM
Ki [4]: 1.24 µM
IC50 [5]: 4.95 µM

CCC[C@H](C(=O)NO)[C@@]1(N)CCN(c2ccc(OCc3cc(C)nc4ccccc34)cc2)C1=O
Ki [1]: > 5 µM
Ki [2]: > 2 µM
IC50 [3]: 0.004 µM
Ki [4]: > 3 µM
IC50 [5]: > 3 µM

CC(=O)N[C@H](C(=O)NO)[C@H]1CCN(c2ccc(OCc3cc(C)nc4ccccc34)cc2)C1=O
Ki [1]: > 5 µM
Ki [2]: > 2 µM
IC50 [3]: 0.001 µM
Ki [4]: 0.194 µM
IC50 [5]: 1.56 µM

Cc1cc(COc2ccc(N3CC[C@](N)(CC(=O)NO)C3=O)cc2)c2ccccc2n1
Ki [1]: > 5 µM
Ki [2]: > 2 µM
IC50 [3]: 0.005 µM
Ki [4]: > 3 µM
IC50 [5]: 4.8 µM

C[C@@H]([C@H]1CCN(c2ccc(OCc3ccccc3)cc2)C1=O)N(O)C=O
Ki [1]: > 5 µM
Ki [2]: > 2 µM
IC50 [3]: 0.111 µM
Ki [4]: > 0.567 µM
IC50 [5]: > 10 µM

Cc1cc(COc2ccc(N3CC[C@H]([C@H](C)N(O)C=O)C3=O)cc2)c2ccccc2n1
Ki [1]: > 5 µM
Ki [2]: > 2 µM
IC50 [3]: 0.002 µM
Ki [4]: > 3 µM
IC50 [5]: 8.7 µM

Cc1cc(COc2ccc(N3CC[C@H]([C@H](NC(=O)N4CCOCC4)C(=O)NO)C3=O)cc2)c2ccccc2n1
Ki [1]: > 5 µM
Ki [2]: > 2 µM
IC50 [3]: < 0.001 µM
Ki [4]: 0.805 µM
IC50 [5]: 0.84 µM

Cc1cc(COc2ccc(N3CC[C@H]([C@H](C)C(=O)NO)C3=O)cc2)c2ccccc2n1
Ki [1]: > 5 µM
Ki [2]: > 2 µM
IC50 [3]: 0.001 µM
Ki [4]: > 1.27 µM
IC50 [5]: 1.57 µM

Cc1cc(COc2ccc(N3CC[C@@]([C@H](C)C(=O)NO)(N(C)C)C3=O)cc2)c2ccccc2n1
Ki [1]: > 5 µM
Ki [2]: 1.3 µM
IC50 [3]: 0.012 µM
IC50 [5]: > 3 µM

Cc1cc(COc2ccc(N3CC[C@H]([C@@H](C(=O)NO)N4CCCC4)C3=O)cc2)c2ccccc2n1
Ki [1]: > 5 µM
Ki [2]: > 2 µM
IC50 [3]: 0.026 µM
Ki [4]: > 3 µM
IC50 [5]: > 10 µM

CCCCOC(=O)N[C@H](C(=O)NO)[C@H]1CCN(c2ccc(OCc3cc(C)nc4ccccc34)cc2)C1=O
Ki [1]: > 1.63 µM
Ki [2]: > 2 µM
IC50 [3]: 0.002 µM
Ki [4]: > 0.305 µM
IC50 [5]: 6.83 µM

Cc1cc(COc2ccc(N3CC[C@H]([C@H](NC(=O)OC(C)(C)C)C(=O)NO)C3=O)cc2)c2ccccc2n1
Ki [1]: 0.788 µM
Ki [2]: 0.291 µM
IC50 [3]: 0.001 µM
Ki [4]: 0.324 µM
IC50 [5]: 0.42 µM

CCC[C@@H](C(=O)NO)[C@@]1(N)CCN(c2ccc(OCc3cc(C)nc4ccccc34)cc2)C1=O
Ki [1]: > 5 µM
Ki [2]: > 2 µM
IC50 [3]: 0.405 µM
Ki [4]: > 3 µM
IC50 [5]: > 10 µM

Cc1cc(COc2ccc(N3CC[C@H]([C@@H](C(=O)NO)N(C)C)C3=O)cc2)c2ccccc2n1
Ki [1]: > 5 µM
Ki [2]: > 2 µM
IC50 [3]: 0.007 µM
Ki [4]: > 3 µM
IC50 [5]: 1.5 µM

CCC[C@@H](C(=O)NO)[C@H]1CCN(c2ccc(OCc3cc(C)nc4ccccc34)cc2)C1=O
Ki [1]: > 5 µM
Ki [2]: > 2 µM
IC50 [3]: 0.14 µM
Ki [4]: > 3 µM

Cc1cc(COc2ccc(N3CC[C@H]([C@H](NC(=O)OC(C)(C)C)C(=O)NO)C3=O)cc2)cc(C)n1
Ki [1]: 2.24 µM
IC50 [3]: 0.006 µM
Ki [4]: > 3 µM
IC50 [5]: > 3 µM

Cc1cc(COc2ccc(N3CC[C@H]([C@H](NC(=O)c4ccccc4)C(=O)NO)C3=O)cc2)c2ccccc2n1
Ki [1]: > 5 µM
Ki [2]: > 2 µM
IC50 [3]: 0.001 µM
Ki [4]: 0.435 µM
IC50 [5]: 9.1 µM

Cc1cc(COc2ccc(N3CC[C@H]([C@H](N)C(=O)NO)C3=O)cc2)cc(C)n1
Ki [1]: > 5 µM
Ki [2]: > 2 µM
IC50 [3]: 0.05 µM
Ki [4]: > 3 µM
IC50 [5]: > 10 µM

From ChEMBL document CHEMBL1136542, “Discovery of N-hydroxy-2-(2-oxo-3-pyrrolidinyl)acetamides as potent and selective inhibitors of tumor necrosis factor-alpha converting enzyme (TACE)” (Bioorg Med Chem Lett, 2003)
